Data taken from patent publication US20030216378A1, “Azepino[4,5-b]pyrano[3,2-e]indoles” (priority 2000, published 2003).

Cn1c2c(c3c4c(ccc31)OCC=C4)CCN(Cc1ccccc1)CC2 [Example 1, 10-Benzyl-7-methyl-7,8,9,10,11,12-hexahydro-3H-azepino[4,5-]pyrano[3,2-e]indole]
melting point: 112 to 114 °C

C1=Cc2c(ccc3[nH]c4c(c23)CCN(Cc2ccccc2)CC4)OC1
melting point: 157 to 160 °C

Cl.c1cc2[nH]c3c(c2c2c1OCCC2)CCNCC3
melting point: > 283 °C (dec.)

O=C(Cn1c2c(c3c4c(ccc31)OCC=C4)CCN(Cc1ccccc1)CC2)Nc1ccccc1 [Example 9, 2-(10-benzyl-3,8,9,10,11,12-hexahydro-7H-azepino[4.5-b]pyrano[3,2-e]indol-7-yl)-N-phenylacetamide]
melting point: 134 to 136 °C

Cl.O=C(Cn1c2c(c3c4c(ccc31)OCCC4)CCNCC2)Nc1ccccc1
melting point: > 250 °C (dec.)

O=C(O)Cn1c2c(c3c4c(ccc31)OCC=C4)CCN(Cc1ccccc1)CC2 [Example 8]
melting point: 185 to 187 °C
